The values below are quoted from earlier work in patent publication US8044033B2, “Fluorocytidine derivatives and COX-2 inhibitors for the treatment of cancer” (The Board of Regents of the University of Texas System, priority 2006, dated 2011).

Read-outs that look alike come from different tables or passages of the source.

Data set [1] concerns metastatic colorectal cancer.
Setting [2] is: First-line therapy, no radiation, cross-study comparison.
Setting [3] is: first-line treatment of metastatic colorectal cancer.

`CCCCCOC(=O)Nc1nc(=O)n([C@@H]2O[C@H](C)[C@@H](O)[C@H]2O)cc1F` [Capecitabine, capecitabine]: the “incidence of hand-foot syndrome (HFS)” value (1250 mg/m2/day bid for two weeks every 3 weeks) was 54%. Besides, for the setting “earlier study, capecitabine dose 1000 mg/m2/d bid (Lin et al., 2002)”, the “incidence of grade 2/3 HFS” value is 34.2%. Besides, in data set [1] (setting [2]), the “Complete response (%)” value was 1% and the “Median OS (months)” value was 12.4-13.2 months. In addition, the “Median OS (months)” value in data set [1] (Second-line therapy, no radiation, cross-study comparison) is reported as 12.7 months. Besides, in data set [1] (setting [3]), the overall survival was 12 months and the response rate is listed as 25%. Moreover, in data set [1] (monotherapy), the “time to tumor progression in half of the patients” value is 2-4 months.
